Where no end group is shown, it is not given here.
How the values were obtained:
[1] = biological target: T1, N-myristoylglycylpeptide synthetase (N-myristoyl transferase or NMT) (Saccharomyces cerevisiae, UniProt P14743); assay: Octapeptide substrate specificity / kinetic characterization with partially purified yeast myristoylating enzyme (Table II); assay type: biochemical
T1 construct: endogenous in cells; host or cells: S. cerevisiae strain JR153
T1 sequence (P14743 1-455): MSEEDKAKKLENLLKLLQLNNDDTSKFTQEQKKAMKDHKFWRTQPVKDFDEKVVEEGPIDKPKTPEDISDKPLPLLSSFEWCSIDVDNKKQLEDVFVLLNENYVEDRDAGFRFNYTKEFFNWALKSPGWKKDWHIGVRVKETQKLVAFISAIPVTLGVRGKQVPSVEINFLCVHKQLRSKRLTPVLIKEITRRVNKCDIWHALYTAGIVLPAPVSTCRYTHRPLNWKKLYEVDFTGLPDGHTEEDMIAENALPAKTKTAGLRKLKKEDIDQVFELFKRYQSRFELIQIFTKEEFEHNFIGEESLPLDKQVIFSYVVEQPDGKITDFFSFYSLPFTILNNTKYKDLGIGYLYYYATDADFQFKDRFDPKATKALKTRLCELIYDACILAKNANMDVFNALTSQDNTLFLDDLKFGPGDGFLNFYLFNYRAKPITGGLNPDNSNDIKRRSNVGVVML
Protocol: The synthetic octapeptides I and II were initially used to identify a unique enzymatic activity which transfers myristic acid to the amino terminal glycine of this and other peptides. […] The enzyme activity was determined in an in vitro assay which measures the transfer of [³H]-myristic acid to the acceptor peptide, […]. The transfer reaction is dependent on adenosine triphosphate (ATP) and coenzyme A (CoA). The enzymatic product was then identified by high performance liquid chromatography (HPLC) by co-elution with a chemically synthesized myristoyl peptide standard. […] Both contained M-myristoyl glycine.
Assay for N-myristoylglycylpeptide synthetase activity. [³H]Fatty acyl CoA was synthesized enzymatically and added to the incubation as follows. […] Typically, 40% to 50% of the [³H]fatty acid was converted to its CoA ester by this procedure as measured by determining the radioactivity remaining in the reaction after acidification with 6 N HCl to pH 2.0 and extraction 6 times with 5 volumes of heptane, a modification of the method of Hosaka et al., Meth. […] One minute fractions were collected and the radioactivity in each fraction determined by liquid scintillation counting. […]

[2] = biological target: T2, N-myristoylglycylpeptide synthetase (Saccharomyces cerevisiae, UniProt P14743); assay: Assay for N-myristoylglycylpeptide synthetase activity, crude yeast membrane fractions (Table I); assay type: biochemical; conditions: Test 3: + 1 mM peptide, 18 µM peptide substrate GlyAsnAlaAlaAlaAlaArgArg, control 26.7
T2 construct: A protease-deficient strain of Saccharomyces cerevisiae, JR153 [Hemmings et al., Proc. Natl. Acad. Sci. USA 78, 435-439 (1981)], was used as a source of N-myristoylglycylpeptide synthetase; endogenous in cells; host or cells: S. cerevisiae strain JR153, crude membrane pellet of cell lysate
T2 sequence (P14743 1-455): T1 sequence (P14743 1-455)
Protocol: Preparation of yeast extract for the assay of N-myristoylglycylpeptide synthetase activity. Yeast cultures were grown as described above to O.D. 660 nm of 1 to 3. Cells from 40 ml of culture were collected by centrifugation at 4°C at 7600 x g for 10 minutes. The supernatant was decanted, the cell pellet was resuspended by pipetting into 1 ml of cold 10 mM Tris, pH 7.4, transferred to a 1.5 ml conical polypropylene centrifuge tube, and the cells were then repelleted at 4°C at 7600 x g for 10 minutes. […] Protein was determined by the method of Peterson, Anal. Biochem. 83, 346-356 (1977).
Assay for N-myristoylglycylpeptide synthetase activity. […] Typically, 40% to 50% of the [³H]fatty acid was converted to its CoA ester by this procedure as measured by determining the radioactivity remaining in the reaction after acidification with 6 N HCl to pH 2.0 and extraction 6 times with 5 volumes of heptane, a modification of the method of Hosaka et al., Meth. […] (Under these conditions, 95% of synthetic [³H]myristoylpeptide or [³H]palmitoylpeptide remined soluble when added to an assay mixture.) Fifty microliters of the supernatant were mixed with 75 µl methanol and 75 µl of HPLC buffer A, and analyzed by reverse phase HPLC on a 3.9 mm by 30 cm Waters µ-Bondapak C₁₈ column using the same HPLC buffers described above, starting at 35% acetonitrile and eluting with a 1% per minute acetonitrile gradient. […]

Substance	Ki [1] [µM]	Rate of Myristoylpeptide Synthesis [2] [DPM x 10⁻³ /10 min]
GNAAKARR-NH2 [Gly-Asn-Ala-Ala-Lys-Ala-Arg-Arg]	50	–
GNANSARR-NH2 [Gly-Asn-Ala-Asn-Ser-Ala-Arg-Arg]	0.3	–
GPRP	–	25.6
GSSKSPKDPS [a decapeptide containing N-terminal glycine]	–	27.4

Reference: patent EP0310585B1, “Octapeptide inhibitors of myristoylating enzymes” (WASHINGTON UNIVERSITY, priority 1987, dated 1989)
